Experimental findings from the supplement of paper PMC4862054 are described below.

Several values for one entry are separate records, joined by “and”; a condition that tells them apart may be missing. Equal entries are not always repeated.

Common to all, as to conditions: incubation time: 72 h
Test [1] relates to CAL-51. Briefly: normalised response (% of control), CellTiter-Glo; higher = more viable cells (100 = DMSO, 0 = benzethonium chloride kill control). In outline: (§1)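 Values are normalised signals, each belonging to one concentration of the series. Breast cancer cells (20 µl suspension) were seeded into 384-well plates with compound at 5 concentrations in 10-fold steps over a compound-specific 10,000-fold range and incubated 72 h. Readouts were CellTox Green fluorescence (485/520 nm), then CellTiter-Glo luminescence after 10 min at room temperature, with each plate set to 0.1 % DMSO as 100 and a positive kill control as 0.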
(In general: Cellular ATP, detected with luciferase, serves as a proxy for viable cell number.)

The test system of test [2] is CAL-85-1. The test is described as above. The gist of the method:
as §1

A further test deals with CAL-120. The description is as above. The gist of the method: as §1
A further test concerns SK-BR-3. The test is described as above. The gist of the method:
as §1

In the next test the test system is Hs578T. The test is described as above. In outline:
as §1

Another test has as its system MFM-223. Described as above. The gist of the method: as §1
For a further test, the system named is MDA-MB-453. The test is described as above. The gist of the method: as §1
Test [3] concerns DU-4475. Described as above. In outline: as §1
The test system of another test is MCF-10A. Described as above. The gist of the method:
as §1

For a further test, the system named is MDA-MB-231. The description is as above. The gist of the method: as §1
In another test the test system is BT-549. Described as above. In outline:
as §1

For a further test, the system named is MDA-MB-468. Described as above. In outline: as §1
Another test has as its system HCC1599. The test is described as above. The gist of the method: as §1
The test system of a further test is CAL-148. The description is as above. In outline: as §1
For the next test, the system named is HCC1143. Described as above. The gist of the method:
as §1

The subject of the next test is MDA-MB-436. Described as above. In outline: as §1
The test system of another test is HCC1937. Described as above. In outline: as §1
Test [4] deals with HDQ-P1. The test is described as above. The gist of the method: as §1
Another test deals with BT-474. Described as above. In outline:
as §1

The test system of test [5] is CAL-51. The experiment in a line: normalised viability (% of control), CellTiter-Blue; higher = more viable cells (about 100 = DMSO control). In outline: (§2)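 Normalised viability is given for a single listed concentration of the series. In 384-well plates, breast cancer cell lines were incubated 72 h with compound, then read with CellTiter-Blue (2 h, 37 °C) at 560/590 nm. Per-plate scaling set vehicle to 100 and a positive kill control to 0, with Z'-factor quality control.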
A general note: Alamar Blue is a resazurin reagent that responds to reducing activity.

Test [6] deals with CAL-85-1. The description is as above. In outline: as §2
Test [7] has as its system DU-4475. The description is as above. The gist of the method: as §2
The test system of test [8] is HDQ-P1. The test is described as above. In outline: as §2

As for `CC[C@@]1(O)C(=O)OCc2c1cc1n(c2=O)Cc2cc3c(CN(C)C)c(O)ccc3nc2-1` [Topotecan] (1000 nM), the normalised response in the test on CAL-51 [1] came out at 48%; with CAL-85-1 [2] it was 50.1%; with CAL-120, 75.6%; in the test on SK-BR-3, 47.6%; with Hs578T it was 99.1%; in the test on MFM-223, 91.4%. Besides, the normalised response with MDA-MB-453 is 87.6%; with DU-4475 [3], 38.4%; with MCF-10A, 79.2%; in the test on MDA-MB-231 it was 81.6%; with BT-549, 51.5%; in the test on MDA-MB-468 it was 11.1%. The normalised response in the test on HCC1599 is 24.1%; in the test on CAL-148 it was 24.3%; in the test with HCC1143, 55.1%; in the test on MDA-MB-436, 42.6%; in the test on HCC1937, 79.3%; in the test with HDQ-P1 [4], 86.9%. The normalised response in the test with BT-474 is 81.8%. For the same molecule, the normalised viability was 15.6% in the test with CAL-51 [5], 37.5% in the test with CAL-85-1 [6], 12.4% with DU-4475 [7] and 77.7% in the test with HDQ-P1 [8].

Take `Cc1c(CN2CCN(C(=O)[C@H](C)O)CC2)sc2c(N3CCOCC3)nc(-c3cnc(N)nc3)nc12` [GDC-0980] (10000 nM): the normalised viability with CAL-51 [5] was 3.17%; in the test with CAL-85-1 [6] it was 15.2%; with DU-4475 [7], 9.81%; in the test on HDQ-P1 [8] it was 10.9%.

For `Cc1ccc(Nc2nccc(N(C)c3ccc4c(C)n(C)nc4c3)n2)cc1S(N)(=O)=O` [Pazopanib] (10000 nM), the normalised viability in the test with CAL-51 [5] is 83.9%; in the test on CAL-85-1 [6], 100%; in the test on DU-4475 [7] it was 86.8%; in the test with HDQ-P1 [8] it was 80.7%.

Turning to `Nc1cccc2c1CN(C1CCC(=O)NC1=O)C2=O` (stereo not given) [Lenalidomide] (10000 nM), the normalised viability was 97.1% and 99.6% with CAL-51 [5]; 81.6% and 86.1% in the test with CAL-85-1 [6]; 95% and 80.6% in the test with DU-4475 [7]; 106% and 110% in the test with HDQ-P1 [8].
